ChEMBL document CHEMBL1201862, “PubChem BioAssay data set” (2004)
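How tested: cells in 96-well plates exposed to compound for 48 hours at five concentrations. Here, GI50 denotes the concentration required for 50% inhibition of growth.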 Calls of active or inactive are those of the source. Cut-off read from the data, not from the text of the source: active = GI50 up to about 1.1 µM and inactive = higher.

Experiments:
Assay in all cases: DTP human tumour cell line panel, 48 h
SK-MEL-2 = system: SK-MEL-2
HCT-116 = system: HCT-116
LOX IMVI = system: LOX IMVI
SNB-75 = system: SNB-75
OVCAR-8 = system: OVCAR-8
OVCAR-5 = system: OVCAR-5
SF-268 = system: SF-268
SF-295 = system: SF-295
NCI-H23 = system: NCI-H23
NCI-H460 = system: NCI-H460
MOLT-4 = system: MOLT-4
RXF 393 = system: RXF 393
IGROV-1 = system: IGROV-1
UO-31 = system: UO-31
SW-620 = system: SW-620
HCC 2998 = system: HCC 2998
SN12C = system: SN12C
UACC-257 = system: UACC-257
A549 = system: A549
HOP-62 = system: HOP-62

Measured: GI50

CC(C)=CCC/C(C)=C/C=C/C(C)=C/C1C[C@@]2(C(O)O1)[C@H](CCCO)/C(=C(/C)C=O)CC[C@]2(C)O (some centres not stated)
inactive: SK-MEL-2 18.6 µM | HCT-116 20.2 µM | LOX IMVI 11.7 µM | SNB-75 51.9 µM | OVCAR-8 22 µM | OVCAR-5 40.8 µM | SF-268 15.2 µM | SF-295 11.4 µM | NCI-H23 > 10 µM | NCI-H460 6.64 µM | MOLT-4 4.95 µM | RXF 393 18.6 µM | IGROV-1 22.3 µM | UO-31 17.3 µM | SW-620 10.4 µM | HCC 2998 15 µM | SN12C 15.6 µM | UACC-257 25.4 µM | A549 7.8 µM

O=C1CCC23CC(C=CC=C12)n1c(=O)n(-c2ccccc2)c(=O)n13 (configuration not stated)
inactive: HOP-62 > 100 µM | SK-MEL-2 > 100 µM | HCT-116 > 71.9 µM | LOX IMVI > 72.1 µM | SNB-75 > 100 µM | OVCAR-8 > 100 µM | OVCAR-5 > 100 µM | SF-268 > 73.6 µM | SF-295 > 100 µM | NCI-H23 99.1 µM | NCI-H460 > 100 µM | MOLT-4 49.7 µM | RXF 393 99.3 µM | IGROV-1 > 100 µM | UO-31 > 64.4 µM | SW-620 43.2 µM | HCC 2998 > 100 µM | SN12C > 100 µM | UACC-257 > 100 µM | A549 > 63.8 µM

CCCCCCCCCCCCCC(=O)OC1C(O)C(CO)OC(OC)C1NC(=O)N(CCCl)N=O (configuration not stated)
inactive: HOP-62 50.7 µM | SK-MEL-2 > 100 µM | LOX IMVI 22.5 µM | SNB-75 38.6 µM | OVCAR-8 43.6 µM | OVCAR-5 > 100 µM | SF-268 6.27 µM | SF-295 29 µM | NCI-H23 28.6 µM | NCI-H460 18.7 µM | MOLT-4 17.3 µM | RXF 393 47 µM | IGROV-1 > 100 µM | UO-31 > 100 µM | SW-620 > 100 µM | HCC 2998 > 100 µM | SN12C 37 µM | UACC-257 28.8 µM | A549 83.9 µM

O=c1cccccc1NCCCCCCCCNc1cccccc1=O
inactive: HOP-62 > 100 µM | SK-MEL-2 > 100 µM | HCT-116 9.62 µM | LOX IMVI 14.3 µM | SNB-75 32.4 µM | OVCAR-8 > 100 µM | OVCAR-5 > 100 µM | SF-268 > 100 µM | SF-295 18.8 µM | NCI-H23 6.78 µM | NCI-H460 85.7 µM | MOLT-4 36.1 µM | RXF 393 > 100 µM | IGROV-1 94.2 µM | UO-31 35.4 µM | SW-620 > 100 µM | HCC 2998 > 100 µM | SN12C > 100 µM | UACC-257 > 100 µM | A549 39.9 µM

CNC(=S)Nc1sc2c(c1C#N)CCCC2
inactive: HOP-62 > 75 µM | SK-MEL-2 > 75 µM | HCT-116 > 75 µM | LOX IMVI > 75 µM | SNB-75 > 75 µM | OVCAR-8 > 75 µM | OVCAR-5 > 75 µM | SF-268 > 75 µM | SF-295 > 75 µM | NCI-H23 > 75 µM | NCI-H460 > 75 µM | MOLT-4 > 75 µM | RXF 393 > 75 µM | IGROV-1 > 75 µM | UO-31 > 75 µM | SW-620 > 75 µM | HCC 2998 > 75 µM | SN12C > 75 µM | UACC-257 > 75 µM

CCCCN(CCCC)CC(=O)c1ccc2cc(Cl)c3ccccc3c2c1
inactive: HOP-62 50 µM | SK-MEL-2 25.5 µM | HCT-116 43.1 µM | LOX IMVI 23.4 µM | SNB-75 29.8 µM | OVCAR-8 20 µM | OVCAR-5 51.1 µM | SF-268 16.1 µM | SF-295 31 µM | NCI-H23 46.9 µM | NCI-H460 18.3 µM | MOLT-4 31.5 µM | RXF 393 13.4 µM | IGROV-1 20.9 µM | UO-31 20.6 µM | SW-620 29.8 µM | HCC 2998 32.1 µM | SN12C 50.7 µM | UACC-257 31.9 µM | A549 27.2 µM

CN1CN(c2ccccc2)C2(CCNCC2)C1=O
inactive: HOP-62 > 100 µM | SK-MEL-2 > 100 µM | HCT-116 > 100 µM | LOX IMVI > 100 µM | SNB-75 > 100 µM | OVCAR-8 > 100 µM | OVCAR-5 > 100 µM | SF-268 > 100 µM | SF-295 > 100 µM | NCI-H23 > 100 µM | NCI-H460 > 100 µM | MOLT-4 > 100 µM | RXF 393 > 100 µM | IGROV-1 > 100 µM | UO-31 > 100 µM | SW-620 > 100 µM | HCC 2998 > 100 µM | SN12C > 100 µM | UACC-257 > 100 µM | A549 > 100 µM
